The text below walks through data of patent EP4678638A1, “NEW E3 UBIQUITIN LIGASE LIGAND, PROTEIN DEGRADATION AGENT AND USE THEREOF” (priority 2023, dated 2024).

The assay concerns EGFR. Put plainly: Western blot degradation of EGFR (H1975 Cell). The settings on record: Table D2. It counts as cell-based, Human. Here is the method:
Conventional Western blot assay was performed to evaluate the effects of the compounds of the present disclosure on the expression of target proteins in cells.
(1) Cell Seeding and Protein Harvesting: The selected cells were processed according to the cell seeding procedure and protein harvesting procedure in Table III-2. Table III-2 Cell Seeding and Protein Harvesting Procedures
(2) To the collected supernatant, 5X SDS sample loading buffer was added, followed by denaturation at 95°C for 5 minutes. The denatured samples were then separated by SDS-PAGE electrophoresis on a polyacrylamide gel. Proteins were transferred to a nitrocellulose membrane (0.45 µm NC membrane), blocked with blocking buffer at room temperature for 1 hour, and subjected to antibody incubation and development procedures according to the antibody manufacturer's instructions (Cell Signaling Technology).
Half-Maximal Degradation Concentration value (the drug concentration required for degrading proteins by 50%, abbreviated as DC50) reads method: comparing the grayscale values of Western blot bands from drug-treated samples with those from blank DMSO-treated controls, and identifying the drug concentration range at which the grayscale value is half that of the DMSO-treated control bands.
DC50 values can be calculated using ImageJ software to measure grayscale values of Western blot bands from drug-treated samples. The concentration-response curve is fitted to estimate the drug concentration corresponding to half the grayscale value.
Target protein remaining (%) refers to the percentage of target protein remaining in hPBMC cells after treatment with protein degrader compounds.
Calculation method for target protein remaining (%): Use ImageJ software to measure grayscale values of Western blot bands from drug (protein degrader)-treated samples. The grayscale value of drug-treated bands is divided by that of internal control protein bands, and the resulting quotient is normalized to obtain the relative percentage of remaining target protein after protein degrader treatment.
Target protein degradation rate (%) = 100% - target protein remaining (%).

As for `COc1cc(N2CCN(Cc3ccc(C4CCC(=O)NC4=O)cc3)CC2)c(C)cc1Nc1ncc(Br)c(Nc2ccc3nccnc3c2P(C)(C)=O)n1` (stereo not shown) [GT-03913, 3-(4-((4-(4-((5-bromo-4-((5-(dimethylphosphoryl)quinoxalin-6-yl)amino)pyrimidin-2-yl)amino)-5-methoxy-2-methylphenyl)piperazin-1-yl)methyl)phenyl)piperidine-2,6-dione], the “Degradation of substrate protein EGFR (substrate protein remaining %)” value (“Degradation … (substrate protein remaining %)” for short) was “A (A is defined as 0% ≤ substrate protein remaining % ≤ 80%)”. In the case of `COc1cc(N2CCN(Cc3ccc(C4CCC(=O)NC4=O)c(F)c3)CC2)c(C)cc1Nc1ncc(Br)c(Nc2ccc3nccnc3c2P(C)(C)=O)n1` (stereo not shown) [GT-03914, 3-(4-((4-(4-((5-bromo-4-((5-(dimethylphosphoryl)quinoxalin-6-yl)amino)pyrimidin-2-yl)amino)-5-methoxy-2-methylphenyl)piperazin-1-yl)methyl)-2-fluorophenyl)piperidine-2,6-dione], the “Degradation … (substrate protein remaining %)” value is listed as “A (A is defined as 0% ≤ substrate protein remaining % ≤ 80%)”. Take `COc1cc(N2CCC(N(C)Cc3ccc(C4CCC(=O)NC4=O)c(F)c3)CC2)c(C)cc1Nc1ncc(Br)c(Nc2ccc3nccnc3c2P(C)(C)=O)n1` (stereo not shown) [GT-03931, 3-(4-(((1-(4-((5-bromo-4-((5-(dimethylphosphoryl)quinoxalin-6-yl)amino)pyrimidin-2-yl)amino)-5-methoxy-2-methylphenyl)piperidin-4-yl)(methyl)amino)methyl)-2-fluorophenyl)piperidine-2,6-dione]: the “Degradation … (substrate protein remaining %)” value is “A (A is defined as 0% ≤ substrate protein remaining % ≤ 80%)”.

Consider `O=C1CCN(c2ccc(CN3C[C@@H]4C[C@H]3CN4c3ccc(-c4cc(F)c5c(c4)C(=O)N(C(C(=O)Nc4nccs4)c4ncn6c4CCC6)C5)cc3)cn2)C(=O)N1` (stereo partly drawn) [GT-05120, 2-(6,7-dihydro-5H-pyrrolo[1,2-c]imidazol-1-yl)-2-(6-(4-((1S,4S)-5-((6-(2,4-dioxotetrahydropyrimidin-1(2H)-yl)pyridin-3-yl)methyl)-2,5-diazabicyclo[2.2.1]heptan-2-yl)phenyl)-4-fluoro-1-oxoisoindolin-2-yl)-N-(thiazol-2-yl)acetamide], for which the “Degradation … (substrate protein remaining %)” value is listed as “A (A is defined as 0% ≤ substrate protein remaining % ≤ 80%)”.

For the compound `CC(C)n1nc(N2CCN(Cc3ccc(N4CCC(=O)NC4=O)cn3)CC2)c2cnc(Nc3ccnc(-c4cnn(S(=O)(=O)C5CC5)c4)n3)cc21` [GT-06014, 1-(6-((4-(6-((2-(1-(cyclopropylsulfonyl)-1H-pyrazol-4-yl)pyrimidin-4-yl)amino)-1-isopropyl-1H-pyrazolo[4,3-c]pyridin-3-yl)piperazin-1-yl)methyl)pyridin-3-yl)dihydropyrimidine-2,4(1H,3H)-dione], the “Degradation … (substrate protein remaining %)” value is “A (A is defined as 0% ≤ substrate protein remaining % ≤ 80%)”. Next, `CC(C)n1nc(N2CCN(Cc3ccc(N4CCC(=O)NC4=O)nc3)CC2)c2cnc(Nc3ccnc(-c4cnn(S(=O)(=O)C5CC5)c4)n3)cc21` [GT-06015, 1-(5-((4-(6-((2-(1-(cyclopropylsulfonyl)-1H-pyrazol-4-yl)pyrimidin-4-yl)amino)-1-isopropyl-1H-pyrazolo[4,3-c]pyridin-3-yl)piperazin-1-yl)methyl)pyridin-2-yl)dihydropyrimidine-2,4(1H,3H)-dione]: “A (A is defined as 0% ≤ substrate protein remaining % ≤ 80%)”. For `CC(C)n1nc(N2CCN(Cc3cccc(NC4CCC(=O)NC4=O)c3)CC2)c2cnc(Nc3ccnc(-c4cnn(S(=O)(=O)C5CC5)c4)n3)cc21` (stereo not shown) [GT-06016, 3-((3-((4-(6-((2-(1-(cyclopropylsulfonyl)-1H-pyrazol-4-yl)pyrimidin-4-yl)amino)-1-isopropyl-1H-pyrazolo[4,3-c]pyridin-3-yl)piperazin-1-yl)methyl)phenyl)amino)pip eridine-2,6-dione], the “Degradation … (substrate protein remaining %)” value is given as “A (A is defined as 0% ≤ substrate protein remaining % ≤ 80%)”.
